Consider four compounds from publication PMC3813752 (PLoS ONE, 2013).

For assay [1], the target named is T1, human GPR18 (Homo sapiens, UniProt Q14330).
T1 sequence (Q14330 1-331): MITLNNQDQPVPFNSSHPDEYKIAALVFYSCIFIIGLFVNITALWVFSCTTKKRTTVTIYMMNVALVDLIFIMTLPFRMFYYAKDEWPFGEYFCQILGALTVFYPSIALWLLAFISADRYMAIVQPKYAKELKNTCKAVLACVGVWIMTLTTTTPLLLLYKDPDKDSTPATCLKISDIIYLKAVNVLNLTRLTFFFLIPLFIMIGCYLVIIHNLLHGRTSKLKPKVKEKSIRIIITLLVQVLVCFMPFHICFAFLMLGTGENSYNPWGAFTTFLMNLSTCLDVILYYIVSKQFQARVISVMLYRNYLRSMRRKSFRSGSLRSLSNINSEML
Kind of assay: cell-based. Conditions: for inhibition at 10 µM: CHO, read-out: % inhibition of Δ9-THC (10 µM)-induced β-arrestin recruitment at GPR18, test compound at 10 µM; for IC50: GPR18 IC50, β-arrestin recruitment, antagonist mode vs. Δ9-THC (10 µM). A general note: Activated receptors often draw arrestin, which recruitment assays turn into a signal.

The next assay has as its target human GPR55 (Homo sapiens, UniProt Q9Y2T6). Kind of assay: β-arrestin recruitment assay (PathHunter), CHO cells expressing GPR55. Conditions: for inhibition at 10 µM: CHO; for IC50: GPR55 IC50, β-arrestin recruitment, antagonist mode vs. LPI (1 µM); for agonist effect on β-arrestin recruitment at GPR55: test compound 10 µM, related to effect of LPI 1 µM = 100%.
Assay [2] addresses T1, human GPR18. The settings on record: for agonist effect on β-arrestin recruitment at GPR18: test compound 10 µM, related to effect of Δ9-THC 10 µM = 100%.
Assay [3] has as its target T2, human CB1 receptor (Homo sapiens, UniProt P21554). Conditions: determined at 100 µM; cited from earlier work.
The target in assay [4] is T3, human CB2 receptor (Homo sapiens, UniProt P34972). Kind of assay: Radioligand binding (heterologous competition) vs. [3H]CP55,940 at CB2.
T3 sequence (P34972 whole entry): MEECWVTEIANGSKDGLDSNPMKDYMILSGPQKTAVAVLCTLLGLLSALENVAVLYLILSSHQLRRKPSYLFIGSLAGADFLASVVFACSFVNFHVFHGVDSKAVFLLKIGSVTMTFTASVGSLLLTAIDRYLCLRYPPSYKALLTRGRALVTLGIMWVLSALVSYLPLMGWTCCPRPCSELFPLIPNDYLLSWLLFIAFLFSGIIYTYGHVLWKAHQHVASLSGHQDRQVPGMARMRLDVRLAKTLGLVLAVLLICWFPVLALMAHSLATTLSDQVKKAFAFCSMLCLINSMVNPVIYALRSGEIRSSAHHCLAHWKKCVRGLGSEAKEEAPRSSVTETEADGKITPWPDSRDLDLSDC
Assay [5] deals with T3, human CB2 receptor. The settings on record: in words; cited from earlier work.
Assay [6] addresses T3, human CB2 receptor. Description: cAMP accumulation assay, CHO cells expressing CB2. Type of assay: cell-based. Conditions: for efficacy CB2, cAMP accumulation assay: at 10 µM, compared to max. effect of full agonist CP55,940 (1 µM) = 100%. (Cyclic AMP is a second messenger, typically raised through Gs and lowered through Gi signalling.)
The target of assay [7] is T2, human CB1 receptor. Kind of assay: cAMP accumulation assay, CHO cells expressing CB1. The class given is cell-based. The settings on record: at 10 µM, compared to max. effect of full agonist CP55,940 (1 µM) = 100%.
For assay [8], the target named is T2, human CB1 receptor. Description: biochemical. Type of assay: binding. Conditions: membranes of CHO cells expressing human CB1; three independent experiments in duplicates; read-out: Ki CB1, heterologous competition vs. [3H]CP55,940.
The mark [9] stands for this setting: read-out: % inhibition of LPI (1 µM)-induced β-arrestin recruitment at GPR55, test compound at 10 µM.

Where two headings read alike, the source gives them in different places. Marks after values point to notes of the source that are not given here.

Sequence of human GPR55 (Q9Y2T6 whole entry): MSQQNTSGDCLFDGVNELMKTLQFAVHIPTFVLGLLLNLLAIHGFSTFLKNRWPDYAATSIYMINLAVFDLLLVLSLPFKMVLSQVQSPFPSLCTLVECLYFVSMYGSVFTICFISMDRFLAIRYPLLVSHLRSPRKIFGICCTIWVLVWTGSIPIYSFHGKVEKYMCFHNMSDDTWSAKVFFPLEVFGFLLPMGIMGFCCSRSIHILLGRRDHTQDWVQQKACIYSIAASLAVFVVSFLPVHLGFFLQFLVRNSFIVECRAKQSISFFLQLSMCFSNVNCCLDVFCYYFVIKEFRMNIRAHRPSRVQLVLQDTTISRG
T2 sequence (P21554 whole entry): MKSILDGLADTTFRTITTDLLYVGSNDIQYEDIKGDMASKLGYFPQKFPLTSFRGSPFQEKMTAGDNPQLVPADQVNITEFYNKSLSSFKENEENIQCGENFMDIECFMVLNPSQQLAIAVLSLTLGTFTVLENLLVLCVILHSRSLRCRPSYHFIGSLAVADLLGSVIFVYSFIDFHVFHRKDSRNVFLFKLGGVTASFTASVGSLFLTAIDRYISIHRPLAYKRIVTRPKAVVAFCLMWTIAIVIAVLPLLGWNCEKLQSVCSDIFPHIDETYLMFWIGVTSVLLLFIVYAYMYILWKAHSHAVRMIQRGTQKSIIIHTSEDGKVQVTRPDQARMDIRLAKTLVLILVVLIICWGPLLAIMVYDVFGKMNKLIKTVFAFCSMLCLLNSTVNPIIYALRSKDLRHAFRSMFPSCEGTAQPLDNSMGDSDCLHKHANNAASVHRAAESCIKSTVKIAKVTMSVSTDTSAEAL

Take `C=CCc1ccc(O)c(-c2cc(CC=C)ccc2O)c1` [Compound 9, 4-allyl-2-(5-allyl-2-hydroxyphenyl)phenol, reference compound]: at human GPR18 [1], the EC50 – broadly, the midpoint of the concentration-response curve – is > 10 µM; the inhibition (usually the relative decrease from the control value, in per cent) at 10 µM turned out to be 2%; the IC50 (in general, the concentration that inhibits the measured activity by half) is > 10 µM. On human GPR55, the EC50 was > 10 µM, the IC50 was > 10 µM and the “agonist effect on β-arrestin recruitment at GPR55” value (from here on “agonist effect … at GPR55”) is 11%. Moreover, on human GPR55 (read-out: % inhibition of LPI (1 µM)-induced β-arrestin recruitment at GPR55), the inhibition at 10 µM came out at 0%. Further, at human GPR18 [2], the “agonist effect on β-arrestin recruitment at GPR18” value (“agonist effect … at GPR18” for short) was 0%. Moreover, on human CB1 receptor [3], the “efficacy CB1, cAMP accumulation assay” value is 62%.

Take `C=CCc1ccc(O)c(-c2ccc(OC)c(CC=C)c2)c1` [Compound 11, 4′-O-Methylhonokiol, reference compound]: the Ki (as a rule, a dissociation constant, usually derived from enzyme kinetics or from competition with a known ligand) on human CB2 receptor [4] (Ki CB2, heterologous competition vs. [3H]CP55,940, membranes of CHO cells expressing human CB2, three independent experiments in duplicates) is 0.0433 ± 0.0171 µM. At human GPR18 [1], the concentration for a half-maximal effect (EC50) is > 10 µM, the inhibition at 10 µM stood at 37% and the IC50 was > 10 µM. The “functional property at CB2” value at human CB2 receptor [5] is given as “inverse agonist”. Besides, at human GPR55, the concentration giving a half-maximal response (EC50) is > 10 µM, the IC50 amounted to 7.77 ± 0.97 µM and the “agonist effect … at GPR55” value was determined as 4%. Besides, on human GPR55 (setting [9]), the inhibition at 10 µM came to 87%. On human GPR55 (in words), the “functional property at GPR55 (agonist/antagonist)” value was “antagonist”. Besides, at human GPR18 [2] (in words), the “functional property at GPR18 (agonist/antagonist)” value is given as “antagonist”. In addition, at human GPR18 [2], the “agonist effect … at GPR18” value turned out to be 0%. The “functional property at CB2 (agonist/antagonist)” value on human CB2 receptor [6] (in words, standard ligands partly from the literature) is recorded as “agonist”.

On to `CCCCCc1ccc(O)c(-c2cc(CCCC)ccc2O)c1` [Compound 64], for which, on human CB2 receptor [4] (membranes of CHO cells expressing human CB2, three independent experiments in duplicates, read-out: Ki CB2, heterologous competition vs. [3H]CP55,940), the Ki came to 0.234 ± 0.039 µM. At human GPR18 [1], the EC50 was > 10 µM, the inhibition at 10 µM was 94% and the IC50 was determined as 13.9 ± 0.9 µM. In addition, on human GPR55, the EC50 is > 10 µM, the IC50 is > 10 µM and the “agonist effect … at GPR55” value turned out to be 15%. The inhibition at 10 µM at human GPR55 (setting [9]) is 21%. For the same compound, the “efficacy CB1, cAMP accumulation assay” value on human CB1 receptor [7] was “(122%)^b”. In addition, at human GPR18 [2], the “agonist effect … at GPR18” value was found to be 0%. Further, the inhibition constant Ki on human CB1 receptor [8] worked out at 3.61 ± 1.35 µM. Also, the “efficacy CB2, cAMP accumulation assay” value on human CB2 receptor [6] is reported as “(68%)^b”.

With `CCCCCCc1ccc(O)c(-c2cc(CCCC)ccc2O)c1` [Compound 65], the Ki on human CB2 receptor [4] (vs. [3H]CP55,940, read-out: Ki CB2) was 0.67 µM. Besides, at human GPR18 [1], the concentration giving a half-maximal response (EC50) was > 10 µM, the inhibition at 10 µM is 116% and inhibition was half-maximal at 11 ± 0.7 µM (IC50). Further, on human GPR55, the half-maximal effective concentration (EC50) was > 10 µM, the IC50 was > 10 µM and the “agonist effect … at GPR55” value came out at 36%. Further, the inhibition at 10 µM at human GPR55 (setting [9]) was found to be 15%. The “efficacy CB1, cAMP accumulation assay” value at human CB1 receptor [7] was “(95%)^b”. Moreover, the “agonist effect … at GPR18” value at human GPR18 [2] was 0%. For the same compound, on human CB1 receptor [8], the Ki stood at 2.6 ± 0.09 µM. Besides, the “efficacy CB2, cAMP accumulation assay” value at human CB2 receptor [6] is recorded as “(49%)^b”.
